Measurements published in ChEMBL document CHEMBL3817841, “Biological evaluation of quinoline derivatives as inhibitors of human dihydroorotate dehydrogenase” (Medchemcomm, 2016).

Legend:
[1] = target: T1, Dihydroorotate dehydrogenase (quinone), mitochondrial (Homo sapiens, UniProt Q02127); experiment: Inhibition of N-terminally truncated human DHODH (Met30 to Arg396 residues) expressed in Escherichia coli BL21 (DE3) using dihydroorotate as substrate preincubated for 5 mins followed by substrate addition measured every 30 secs for 6 mins by DCIP-based spectrophotometric assay
T1 sequence (Q02127 whole entry, the tested form may be a part): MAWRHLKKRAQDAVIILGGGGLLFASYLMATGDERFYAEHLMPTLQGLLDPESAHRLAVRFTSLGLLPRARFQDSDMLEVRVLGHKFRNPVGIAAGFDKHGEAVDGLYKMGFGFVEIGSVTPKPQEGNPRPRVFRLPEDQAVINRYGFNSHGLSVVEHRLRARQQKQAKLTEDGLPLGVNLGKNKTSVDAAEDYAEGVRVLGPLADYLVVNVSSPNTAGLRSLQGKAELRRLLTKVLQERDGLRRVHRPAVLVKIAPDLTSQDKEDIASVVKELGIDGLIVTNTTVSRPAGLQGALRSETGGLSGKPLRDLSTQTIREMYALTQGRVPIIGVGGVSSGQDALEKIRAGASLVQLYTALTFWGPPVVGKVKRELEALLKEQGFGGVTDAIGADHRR

[2] = target: T1, Dihydroorotate dehydrogenase (quinone), mitochondrial; experiment: Binding affinity to N-terminally truncated human DHODH (Met30 to Arg396 residues) expressed in Escherichia coli BL21 (DE3) assessed as dissociation rate constant by surface plasmon resonance assay
[3] = target: T1, Dihydroorotate dehydrogenase (quinone), mitochondrial; experiment: Binding affinity to N-terminally truncated human DHODH (Met30 to Arg396 residues) expressed in Escherichia coli BL21 (DE3) by surface plasmon resonance assay
[4] = target: T1, Dihydroorotate dehydrogenase (quinone), mitochondrial
Description: Binding affinity to N-terminally truncated human DHODH (Met30 to Arg396 residues) expressed in Escherichia coli BL21 (DE3) assessed as change in melting temperature at 100 uM by fluorescence-based thermal shift assay

[5] = target: T1, Dihydroorotate dehydrogenase (quinone), mitochondrial; remark: listed apart in the source
Description: Binding affinity to N-terminally truncated human DHODH (Met30 to Arg396 residues) expressed in Escherichia coli BL21 (DE3) assessed as association rate constant by surface plasmon resonance assay

SMILES | IC50 [1] [nM] | also measured
O=C(O)c1cc(-c2ccc3c(c2)OCO3)nc2ccccc12 | 5180 | –
CCCCOc1cccc(-c2cc(C(=O)O)c3ccccc3n2)c1 | 1310 | –
COC(=O)c1cc(-c2ccc(OC)c(OC)c2)nc2ccccc12 | 3250 | –
CCCCc1ccc(-c2cc(C(=O)O)c3ccccc3n2)cc1 | 437 | –
Cc1c(-c2ccc(C(C)C)cc2)nc2ccccc2c1C(=O)O | 1570 | –

Continued, in another order:

IC50 [1] [nM] | SMILES | also measured
666 | O=C(O)c1cc(-c2ccc(Cl)cc2Cl)nc2ccc(Br)cc12 | –
136 | CC(C)c1ccc(-c2cc(C(=O)O)c3cc(Br)ccc3n2)cc1 | –
57.1 | O=C(O)c1cc(-c2ccc(Cl)c(Cl)c2)nc2ccc(Br)cc12 | –
9.7 | CCC(C)c1ccc(-c2nc3ccc(Br)cc3c(C(=O)O)c2C)cc1 (stereo not drawn) | koff [2]: 7.58 ×10⁻³ /s; Kd [3]: 12 nM; ΔTm [4]: 16.6 °C; Ka [5]: 5.99 ×10⁵ /M/s
